Laboratory results as given in PubChem BioAssay (NCI).
Where “and” joins values, the source holds several entries; their conditions need not be identical. Identical values can stand only once.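 Test compounds were applied to cells in 96-well plates for 48 hours at 5 doses. GI50 = concentration required for 50% inhibition of growth. The concentration for full growth arrest is given as TGI.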

Key:
Experiment in all cases: inhibition of tumour cell growth, NCI panel, 48 h
HL-60(TB) leukemia = test system: HL-60(TB) leukemia
HT29 colon = test system: HT29 colon
K-562 leukemia = test system: K-562 leukemia
M14 melanoma = test system: M14 melanoma
NCI-H226 lung = test system: NCI-H226 lung
NCI-H460 lung = test system: NCI-H460 lung
SK-MEL-5 melanoma = test system: SK-MEL-5 melanoma
UACC-62 melanoma = test system: UACC-62 melanoma
DU-145 prostate = test system: DU-145 prostate
HS 578T breast = test system: HS 578T breast

Structure (SMILES)	TGI (HL-60(TB) leukemia) [µM]	TGI (HT29 colon)	TGI (K-562 leukemia)	TGI (M14 melanoma)	TGI (NCI-H226 lung) [µM]	TGI (NCI-H460 lung)	TGI (SK-MEL-5 melanoma)	TGI (UACC-62 melanoma)	TGI (DU-145 prostate)	TGI (HS 578T breast)	GI50 (DU-145 prostate) [µM]	GI50 (HL-60(TB) leukemia) [µM]	GI50 (HT29 colon) [µM]	GI50 (K-562 leukemia) [µM]	GI50 (M14 melanoma) [µM]	GI50 (NCI-H226 lung) [µM]	GI50 (NCI-H460 lung) [µM]	GI50 (SK-MEL-5 melanoma) [µM]	GI50 (UACC-62 melanoma) [µM]	GI50 (HS 578T breast) [µM]
[O-]c1c(-c2ccccc2)[se]c(-c2ccccc2)[n+]1-c1ccccc1	5.51	52.9 µM	> 100 µM	17.6 µM	9.11	38.7 µM	26.5 µM	27.5 µM												
O=C(O/N=C1/CCC/C1=C\c1ccccc1)c1ccc(Cl)cc1	> 100	> 100 µM	> 100 µM	> 100 µM	> 100	> 31.6 µM	> 100 µM	> 100 µM												
Nc1nc(N)c2ncn(Cc3c(Cl)cccc3Cl)c2n1		> 100 µM		> 100 µM	> 100		> 100 µM	> 100 µM	> 100 µM	> 100 µM										
O=c1c2ccccc2c(C=NCCNCCO)c2oc3ccccc3n12	20.7	16.5 µM	16.4 µM	29.5 µM	29	11 µM	20.1 µM	23.8 µM	24.5 µM		12.1	4.63	3.33	4.31	15.6	11.9	2.9	7.16	11.6	
CC(=O)OC1C(O)COC(Oc2c(C)c3c4c(c2O)[C@@H](C)CC[C@@H]4[C@@H](C)C[C@H]3C=C(C)C)C1O (stereo not given in full)			30.2 µM	31.5 µM	64.8	47.1 µM	32.4 µM	36 µM	29 µM	37.2 µM	12.8			10.3	14.6	24.5	16.3	15.3	16.3	16.8
COc1cc2c(C#N)n3c(c2cc1OC)C(=O)C(c1ccccc1)Oc1ccccc1-3 (stereo not given)			> 100 µM		> 100				> 100 µM	65.5 µM	91			3.08		2.9				4.62
CP(=O)(CCSc1ccccc1)c1ccccc1 (stereo not given)	> 100	> 100 µM	> 100 µM	> 100 µM	> 100	> 100 µM	> 100 µM	> 100 µM												
CCC(=O)[O-].CCC(=O)[O-].N.N.N.N.[Co+3].[O-][Cl+3]([O-])([O-])[O-]	> 100	> 100 µM	> 100 µM	> 100 µM		> 100 µM	> 100 µM	> 100 µM				> 100	> 100	> 100	> 100		> 100	> 100	> 100	
COc1cc2c(cc1OCCN1C(=O)c3cccc4cccc(c34)C1=O)N=C[C@@H]1CCCN1C2=O		16.9 µM and 29.8 µM	10.9 µM and > 100 µM	15.7 µM and 70.6 µM	32.4	13.9 µM and 29.9 µM	15.5 µM and 28.2 µM	14.9 µM and 37.5 µM	17.4 µM and 35.9 µM	19.9 µM and 35.8 µM	18.1		14.4	7.63	22.5		15.5	13.1	17.8	15.2
CC(=O)[CH-]C(=O)c1ccccc1.CC(=O)[CH-]C(=O)c1ccccc1.[O-]c1ccc(O)cc1.[O-]c1ccc(O)cc1.[Ti+4]	30.6	59.7 µM	76 µM	30.8 µM	34.6	44.6 µM	30.3 µM	31.3 µM				3.71	21.5	15.4	15.6	15	14.2	16.2	16.2	
N#CC(C(=N/NC(N)=S)/C(=N\NC(N)=S)C(C#N)c1ccccc1)c1ccccc1 (stereo not given)	> 10	> 10 µM	> 10 µM	> 10 µM	> 10	> 10 µM		> 10 µM												
c1ccc2c(c1)[Se]c1ccccc1[Se]2	> 100	> 100 µM	> 100 µM	> 100 µM	> 100	> 100 µM	> 100 µM	> 100 µM												
NC(CCc1nc(-c2ccccc2)cs1)C(=O)O (stereo not given)	> 100	> 100 µM	> 100 µM	> 100 µM	> 100	> 100 µM	> 100 µM	> 100 µM												
O=S(O)CCCCSSCCCCS(=O)(O)=S		> 100 µM	> 100 µM	32.1 µM		> 100 µM	30.8 µM	70.1 µM												
COc1cccc(NC(=O)c2ccc(C(F)(F)F)nc2Nc2ccc(Cl)cc2C)c1		22.1 µM	38.8 µM	32.5 µM	34.8	24.1 µM	27.8 µM	27.2 µM	28.3 µM	29.3 µM	15		10.2	13.9	16.9	14.7	9.01	14.6	14.2	6.56
COC(=O)c1c(C(=O)OC)c(C(=O)OC)c(C(=O)OC)c1C(=O)OC	> 100	> 100 µM	> 100 µM	> 100 µM		> 100 µM	> 100 µM	> 100 µM												
CCC1N2CCCCC2[C@@H]2c3[nH]c4ccccc4c3CCN12 (stereo not given in full)	> 100	> 100 µM	> 100 µM	> 100 µM		> 100 µM	> 100 µM	> 100 µM												
Cc1cc(Cl)ccc1N1C(=O)C(=O)C(c2nc3ccccc3s2)/C(=N\NC(=O)c2ccccc2O)C1=O (stereo not given)	> 100	> 100 µM	> 100 µM	> 100 µM	> 100	> 100 µM	> 100 µM	> 100 µM												
CC(=O)C1C(=O)C(=O)N(c2ccc(Cl)cc2C)C1=O (stereo not given)	> 100	> 100 µM	> 100 µM	> 100 µM		> 100 µM	> 100 µM	> 100 µM												
CC(C)[C@H](COC(C)(C)C)N=CN1CSc2ccccc21	57.1	> 100 µM	> 100 µM	> 100 µM	> 100	> 100 µM	63 µM	> 100 µM												
NC(N)=NS(=O)(=O)c1ccc(NC(=O)c2ccc(Cl)c3c(Nc4ccc(S(=O)(=O)N=C(N)N)cc4)c4ccccc4nc23)cc1	> 100	> 100 µM	> 100 µM	> 100 µM		> 100 µM		> 100 µM												
